From patent US12043632B2, “6-heteroaryloxy benzimidazoles and azabenzimidazoles as JAK2 inhibitors” (Ajax Therapeutics, Inc., priority 2020, dated 2024) come the findings set out here.

In this assay the target is T1, JAK2 (JH1domain-catalytic, Y1007F,Y1008F) kinase (Homo sapiens, UniProt O60674, Y1007F/Y1008F).
T1 construct: JAK2 (JH1domain-catalytic, Y1007F,Y1008F) kinase was expressed as N-terminal fusion; made in house; host or cells: transiently transfected HEK293 cells
T1 sequence (O60674 849-1124 Y1007F/Y1008F limits assumed): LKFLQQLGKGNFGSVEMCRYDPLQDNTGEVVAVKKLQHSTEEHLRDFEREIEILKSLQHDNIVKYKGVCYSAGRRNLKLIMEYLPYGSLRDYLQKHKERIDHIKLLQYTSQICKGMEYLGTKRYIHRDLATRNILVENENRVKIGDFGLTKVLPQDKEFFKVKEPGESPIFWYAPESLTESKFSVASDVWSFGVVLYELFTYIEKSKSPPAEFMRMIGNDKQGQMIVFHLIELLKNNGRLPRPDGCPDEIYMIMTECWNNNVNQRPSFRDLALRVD
Put plainly: JAK2 JH1 Domain Binding Assay. The note with it: qPCR readout. Background: In qPCR the cycle at which signal appears reflects the starting amount.
Usually Kd stands for the constant that tells how readily two partners part at equilibrium. Low values mean higher affinity, high ones lower affinity. On to `COc1c(Oc2cnn3ccncc23)cnc2nc(Nc3cc(C4CC4)cn([C@H]4C[C@@H](O)C4)c3=O)n(C)c12` [Example I-74, cis-5-cyclopropyl-1-(3-hydroxycyclobutyl)-3-((7-methoxy-1-methyl-6-(pyrazolo[1,5-a]pyrazin-3-yloxy)-1H-imidazo[4,5-b]pyridin-2-yl)amino)pyridin-2(1H)-one], for which the dissociation constant (Kd) was below 10 nM. In turn, `COc1c(Oc2cnn3ccncc23)cnc2nc(Nc3cc(C4CC4)cn([C@H]4C[C@H](O)C4)c3=O)n(C)c12` [Example I-75, trans-5-cyclopropyl-1-(3-hydroxycyclobutyl)-3-((7-methoxy-1-methyl-6-(pyrazolo[1,5-a]pyrazin-3-yloxy)-1H-imidazo[4,5-b]pyridin-2-yl)amino)pyridin-2(1H)-one] yielded a Kd below 10 nM. As for `Cn1c(Nc2cc(C3CC3)cn([C@H]3C[C@H](C#N)C3)c2=O)nc2ncc(Oc3cnn4ccncc34)c(Cl)c21` [Example I-77, trans-3-(3-((7-chloro-1-methyl-6-(pyrazolo[1,5-a]pyrazin-3-yloxy)-1H-imidazo[4,5-b]pyridin-2-yl)amino)-5-cyclopropyl-2-oxopyridin-1(2H)-yl)cyclobutane-1-carbonitrile], the Kd was below 10 nM. Consider `Cn1c(Nc2cc(C3CC3)cn(CCO)c2=O)nc2ncc(Oc3cnn4ccccc34)c(Cl)c21` [Example I-78, 3-((7-chloro-1-methyl-6-(pyrazolo[1,5-a]pyridin-3-yloxy)-1H-imidazo[4,5-b]pyridin-2-yl)amino)-5-cyclopropyl-1-(2-hydroxyethyl)pyridin-2(1H)-one], for which the equilibrium dissociation constant (Kd) was below 10 nM. As to `Cn1c(Nc2cc(C3CC3)cn([C@H]3C[C@H](O)C3)c2=O)nc2ncc(Oc3cnn4ccccc34)c(Cl)c21` [Example I-79, trans-3-((7-chloro-1-methyl-6-(pyrazolo[1,5-a]pyridin-3-yloxy)-1H-imidazo[4,5-b]pyridin-2-yl)amino)-5-cyclopropyl-1-(3-hydroxycyclobutyl)pyridin-2(1H)-one], the equilibrium dissociation constant (Kd) is below 10 nM. To `Cn1c(Nc2cc(C3CC3)cn([C@H]3C[C@@H](C#N)C3)c2=O)nc2ncc(Oc3cnn4ccncc34)c(Cl)c21` [Example I-80, cis-3-(3-((7-chloro-1-methyl-6-(pyrazolo[1,5-a]pyrazin-3-yloxy)-1H-imidazo[4,5-b]pyridin-2-yl)amino)-5-cyclopropyl-2-oxopyridin-1(2H)-yl)cyclobutane-1-carbonitrile] belongs below 10 nM. As for `Cn1c(Nc2cc(C(C)(C)C)n([C@H]3CCO[C@@H]3CO)n2)nc2ncc(Oc3cnc4ccnn4c3)c(Cl)c21` [Example I-82, ((2S,3S)-3-(5-(tert-butyl)-3-((7-chloro-1-methyl-6-(pyrazolo[1,5-a]pyrimidin-6-yloxy)-1H-imidazo[4,5-b]pyridin-2-yl)amino)-1H-pyrazol-1-yl)tetrahydrofuran-2-yl)methanol], the Kd is 10 to 50 nM. Regarding `Cn1c(Nc2cc(C(C)(C)C)n([C@H]3CCO[C@@H]3CO)n2)nc2ncc(Oc3cnn4ccnc4c3)c(Cl)c21` [Example I-83, ((2S,3S)-3-(5-(tert-butyl)-3-((7-chloro-6-(imidazo[1,2-b]pyridazin-7-yloxy)-1-methyl-1H-imidazo[4,5-b]pyridin-2-yl)amino)-1H-pyrazol-1-yl)tetrahydrofuran-2-yl)methanol], the Kd lay within 10 to 50 nM. The figure for `Cn1cc(C2CC2)cc(Nc2nc3ncc(Oc4cnc5cnc(C6CC6)n5c4)c(Cl)c3n2C)c1=O` [Example I-84, 3-((7-chloro-6-((6-cyclopropylimidazo[1,5-a]pyrimidin-3-yl)oxy)-1-methyl-1H-imidazo[4,5-b]pyridin-2-yl)amino)-5-cyclopropyl-1-methylpyridin-2(1H)-one] is below 10 nM. `Cn1c(Nc2cc(C3CC3)cn(C3CC4(COC4)C3)c2=O)nc2ncc(Oc3cnn4ccncc34)c(Cl)c21` [Example I-85, 3-((7-chloro-1-methyl-6-(pyrazolo[1,5-a]pyrazin-3-yloxy)-1H-imidazo[4,5-b]pyridin-2-yl)amino)-5-cyclopropyl-1-(2-oxaspiro[3.3]heptan-6-yl)pyridin-2(1H)-one] returned a Kd below 10 nM. The figure for `Cn1c(Nc2cc(C(C)(C)C)n(C3COC3)n2)nc2ncc(Oc3cnn4ccncc34)c(Cl)c21` [Example I-86, N-(5-(tert-butyl)-1-(oxetan-3-yl)-1H-pyrazol-3-yl)-7-chloro-1-methyl-6-(pyrazolo[1,5-a]pyrazin-3-yloxy)-1H-imidazo[4,5-b]pyridin-2-amine] is below 10 nM. The figure for `Cn1c(Nc2cc(C(C)(C)C)n([C@H]3CCO[C@@H]3CO)n2)nc2ncc(Oc3cnc4cnc(C5CC5)n4c3)c(Cl)c21` [Example I-87, ((2S,3S)-3-(5-(tert-butyl)-3-((7-chloro-6-((6-cyclopropylimidazo[1,5-a]pyrimidin-3-yl)oxy)-1-methyl-1H-imidazo[4,5-b]pyridin-2-yl)amino)-1H-pyrazol-1-yl)tetrahydrofuran-2-yl)methanol] is 10 to 50 nM; for `Cn1c(Nc2cc(C(C)(C)C)n([C@H]3C[C@H](O)C3)n2)nc2ncc(Oc3cnc4cnc(C5CC5)n4c3)c(Cl)c21` [Example I-88, trans-3-(5-(tert-butyl)-3-((7-chloro-6-((6-cyclopropylimidazo[1,5-a]pyrimidin-3-yl)oxy)-1-methyl-1H-imidazo[4,5-b]pyridin-2-yl)amino)-1H-pyrazol-1-yl)cyclobutan-1-ol] it is 10 to 50 nM.

Consider `Cn1c(Nc2cc(C(F)(F)F)cn(C3CC4(COC4)C3)c2=O)nc2ncc(Oc3cnn4ccncc34)c(Cl)c21` [Example I-90, 3-((7-chloro-1-methyl-6-(pyrazolo[1,5-a]pyrazin-3-yloxy)-1H-imidazo[4,5-b]pyridin-2-yl)amino)-1-(2-oxaspiro[3.3]heptan-6-yl)-5-(trifluoromethyl)pyridin-2(1H)-one], for which the equilibrium dissociation constant (Kd) was below 10 nM. Compound `Cn1c(Nc2cc(C(F)(F)F)cn(CCCN3CCOCC3)c2=O)nc2ncc(Oc3cnn4ccncc34)c(Cl)c21` [Example I-91, 3-((7-chloro-1-methyl-6-(pyrazolo[1,5-a]pyrazin-3-yloxy)-1H-imidazo[4,5-b]pyridin-2-yl)amino)-1-(3-morpholinopropyl)-5-(trifluoromethyl)pyridin-2(1H)-one] gave a dissociation constant (Kd) below 10 nM. To `Cn1cc(C2CC2)cc(Nc2nc3ncc(Oc4cnc5[nH]ncc5c4)c(Cl)c3n2C)c1=O` [Example I-92, 3-((6-((1H-pyrazolo[3,4-b]pyridin-5-yl)oxy)-7-chloro-1-methyl-1H-imidazo[4,5-b]pyridin-2-yl)amino)-5-cyclopropyl-1-methylpyridin-2(1H)-one] belongs below 10 nM. The figure for `CC(=O)N1CC(n2nc(Nc3nc4ncc(Oc5cnn6ccncc56)c(Cl)c4n3C)cc2C(C)(C)C)C1` [Example I-94, 1-(3-(5-(tert-butyl)-3-((7-chloro-1-methyl-6-(pyrazolo[1,5-a]pyrazin-3-yloxy)-1H-imidazo[4,5-b]pyridin-2-yl)amino)-1H-pyrazol-1-yl)azetidin-1-yl)ethan-1-one] is below 10 nM; for `COc1c(Oc2cnn3ccncc23)cnc2nc(Nc3cc(C4CC4)cn([C@H]4C[C@H](C#N)C4)c3=O)n(C)c12` [Example I-96, trans-3-(5-cyclopropyl-3-((7-methoxy-1-methyl-6-(pyrazolo[1,5-a]pyrazin-3-yloxy)-1H-imidazo[4,5-b]pyridin-2-yl)amino)-2-oxopyridin-1(2H)-yl)cyclobutane-1-carbonitrile] it is 10 to 50 nM; for `Cn1c(Nc2cc(C3CC3)cn(CCCN3CCOCC3)c2=O)nc2ncc(Oc3cnn4ccncc34)c(Cl)c21` [Example I-97, 3-((7-chloro-1-methyl-6-(pyrazolo[1,5-a]pyrazin-3-yloxy)-1H-imidazo[4,5-b]pyridin-2-yl)amino)-5-cyclopropyl-1-(3-morpholinopropyl)pyridin-2(1H)-one] it is below 10 nM. The figure for `COc1c(Oc2cnn3ccccc23)cnc2nc(Nc3cc(C4CC4)cn(CCO)c3=O)n(C)c12` [Example I-100, 5-cyclopropyl-1-(2-hydroxyethyl)-3-((7-methoxy-1-methyl-6-(pyrazolo[1,5-a]pyridin-3-yloxy)-1H-imidazo[4,5-b]pyridin-2-yl)amino)pyridin-2(1H)-one] is 10 to 50 nM; for `CN1CCN(CCn2cc(C3CC3)cc(Nc3nc4ncc(Oc5cnn6ccccc56)c(Cl)c4n3C)c2=O)CC1` [Example I-102, 3-((7-chloro-1-methyl-6-(pyrazolo[1,5-a]pyridin-3-yloxy)-1H-imidazo[4,5-b]pyridin-2-yl)amino)-5-cyclopropyl-1-(2-(4-methylpiperazin-1-yl)ethyl)pyridin-2(1H)-one] it is below 10 nM; for `Cn1c(Nc2cc(C(F)(F)F)cn(CCO)c2=O)nc2ncc(Oc3cnn4ccccc34)c(Cl)c21` [Example I-103, 3-((7-chloro-1-methyl-6-(pyrazolo[1,5-a]pyridin-3-yloxy)-1H-imidazo[4,5-b]pyridin-2-yl)amino)-1-(2-hydroxyethyl)-5-(trifluoromethyl)pyridin-2(1H)-one] it is below 10 nM.

Take `COc1c(Oc2cnn3ccncc23)cnc2nc(Nc3cc(C4CC4)cn(CC(C)(C)OC)c3=O)n(C)c12` [Example I-106, 5-cyclopropyl-3-((7-methoxy-1-methyl-6-(pyrazolo[1,5-a]pyrazin-3-yloxy)-1H-imidazo[4,5-b]pyridin-2-yl)amino)-1-(2-methoxy-2-methylpropyl)pyridin-2(1H)-one]: the equilibrium dissociation constant (Kd) lay in the range of 10 to 50 nM. To `Cn1c(Nc2cc(C3CC3)cn(-c3cccnc3)c2=O)nc2ncc(Oc3cnn4ccncc34)c(Cl)c21` [Example I-108, 3-((7-chloro-1-methyl-6-(pyrazolo[1,5-a]pyrazin-3-yloxy)-1H-imidazo[4,5-b]pyridin-2-yl)amino)-5-cyclopropyl-2H-[1,3′-bipyridin]-2-one] belongs below 10 nM. `Cn1c(Nc2cc(C(F)(F)F)cn(-c3cccnc3)c2=O)nc2ncc(Oc3cnn4ccncc34)c(Cl)c21` [Example I-109, 3-((7-chloro-1-methyl-6-(pyrazolo[1,5-a]pyrazin-3-yloxy)-1H-imidazo[4,5-b]pyridin-2-yl)amino)-5-(trifluoromethyl)-2H-[1,3′-bipyridin]-2-one] returned a dissociation constant Kd below 10 nM.
